# Legend:
# [1] = Solubilities in water and 1 x PBS buffer (UV-vis); assay type: physicochemical; conditions: for Solubility in 1.0 ml PBS buffer: 1 × PBS buffer; for Solubility in 1.0 ml PBS buffer / Solubility in 1.0 ml water: 25° C.; for solubility comparison: both water or 1 x PBS buffer
# Experimental: The molar extinction co-efficients of exemplary cholesterol lowering compounds were measured in 1 x PBS buffer. The compounds were first dissolved in dimethyl sulfoxide. Solutions with a 0.5 mg/ml concentration were then prepared in DMSO. These solutions were diluted further with 1 x PBS by 100-fold, resulting in solutions with a 5 ug/ml concentration. The resulted diluted solutions were then measured and scanned using a UV-vis spectrophotometer for ultra-violet absorbances between 240 nm to 400 nm, using a UV 96-well microplate. The maximum UV absorbances and corresponding wavelengths were recorded (Table 1). The absorbance values were subtracted by that of a blank, 1 x PBS buffer containing […]. The volume of the solutions for UV measurements was 300 ul and the depth of the solutions was 0.7 cm. The molar extinction co-efficients were then calculated based on formula
# The solubilities of the exemplary cholesterol lowering compounds were measured in water and 1 x PBS buffer. The compounds were first stirred with water and 1 x PBS buffer individually at room temperature for 1 h. The suspensions were then centrifuged for 2 min. The top clear solutions were filtered through filter paper, resulting in mother liquids, which were centrifuged again and diluted with 1 x PBS buffer for 10-fold for the solubilities in water and 100-fold the solubilities in 1 x PBS buffer. The resulted solutions were measured using a UV-vis spectrophotometer for UV absorbances with the maximum absorbances. The values were subtracted by that of a blank, 1 x PBS buffer. The corrected absorbances were then used to calculate the corresponding concentrations using the formula (1) and extinction coefficients (Table 1) shown above. The individual concentrations were then used to calculate the solubilities in 1.0 mL of water and 1 x PBS buffer.
# The compounds were dissolved in DMSO to either 50 mg/ml, 10 mg/ml or 5 mg/ml solutions, which were diluted to 0.5 mg/ml with DMSO. These solutions were then diluted to 5 ug/ml with 1 x PBS buffer. The resulted solutions were then measured in a UV-vis spectrophotometer for UV scanning from 240 nm to 400 nm at 25° C. The absorbance values were subtracted by that of a blank, 1 x PBS buffer containing DMSO. The total volume of the solutions was 300 uL and the path length for each well was 0.7 cm in a UV 96-well plate. The extinction coefficients of the compounds were then calculated based on molar concentrations and the corrected UV absorbances at the maximum absorption (Table 1).
# The mixtures wer stirred for 1 h at room temperature, transferred to 1.5 mL Eppendorf tubes, and centrifuged for 2 min. The clear solutions were filtered through filter papers, affording clear solutions, which were centrifuged again for 2 min. The top clear solutions were diluted by 1 x PBS buffer by 10-fold for the solubilities in water and 100-fold for the solubilities in 1 x PBS buffer. The new clear solutions were then measured individually using a UV-vis spectrophotometer and a UV 96-well microplate. The absorbance values were subtracted by that of a blank, 1 x PBS buffer. Concentrations and solubilities of the compounds were then calculated using their extinct coefficients and the corrected UV absorbances at the maximum absorptions (Table 1).
# [2] = tested on: intracellular APOB, LAMP1, and SORTILIN; assay: Confocal immunofluorescence of intracellular APOB, LAMP1 and SORTILIN; assay type: cell-based, human; conditions: 48 μg/mL, 24 hours
# Experimental: Human iPSC-derived hepatocytes (iPSC-Heps) were treated with 48 μg/mL of DL-9 for 24 hours. Immunofluorescence of intracellular APOB, LAMP1, and SORTILIN was detected by specific antibodies. […] Extracellular APOB was measured by ELISA analysis. APOB level was normalized to DMSO treated group (FIG. 13C). In FIG. 13D intracellular APOB was determined via western blot using a specific anti-APOB antibody. […] Data are shown as mean±SD of triplicates (n=3). Statistical analysis was performed using the student t-test.
# For hepatic marker expression analysis, human iPSC-derived hepatocytes (Day 20) were treated with 2 μg/mL of DL-1 for 24 hours. Cells were fixed in 4% paraformaldehyde (PFA) and penetrated with 0.1% Triton-X-100. Cells were incubated with primary antibodies (ALB, 1:1000, Dako; HNF4-a, 1:1000, Santa Cruz) overnight at 4 degrees and then switched to secondary antibodies (Alexa Flour 488 goat anti-rabbit, 1:1000, Invitrogen; Alexa Flour 594 rabbit anti-mouse, 1:2000, Invitrogen). Images were taken using Bio-Rad Zoe™ Fluorescent Cell Imager (Bio-Rad). For intracellular APOB localization, iPSC-heps were treated with 0, 3, 12, 48 μg/mL of DL-9 for 24 hours, and cells were fixed in 4% PFA followed by 0.1% Triton-X-100 penetration. […] Integrated fluorescent intensity was normalized by total cell counts, which is determined by DAPI staining.
# Hepatic neutral lipid = assay: Neutral lipid staining (BODIPY 493/503) in iPSC-derived hepatocytes; assay type: cell-based, human; conditions: 72 hours; DL-1 2 μg/mL, CP-346086 20 nM
# Experimental: H. Human iPSC derived hepatocytes were treated with DL-1 (2 μg/mL) and MTTP inhibitor CP-346086 (20 nM) for 72 hours. […] (A) Hepatic neutral lipid was determined by staining with 2 μM of BODIPYTM 493/503 for 15 mins and fixed with 4% PFA for microscopy. Nuclei were stained blue by DAPI. Scale bar=100 μm. […] Data are shown as mean±SEM of ten replicates (n=10); ***p<0.001.
# K3 iPSC-derived hepatocytes (Day 20) were treated with or without 2 μg/mL of DL-1 or 20 nM of CP-346086 (Sigma) for 72 hours with daily medium change. At the time-point of interest, cells were treated with 2 μM of BODIPY® 493/503 staining solution (ThermoFisher) and 5 μg/mL of Hoechst 33342 (ThermoFisher) in PBS at 37 degrees for 15 minutes. Cells were washed with sterile PBS three times and then fixed with 4% PFA. Fluorescence images were taken using Bio-rad Zoeυ Fluorescent Cell Imager (Bio-Rad) and KEYENCE BZ-X800E Fluorescence Microscope (KEYENCE). Integrated fluorescent intensity was normalized by total cell counts, which is determined by DAPI staining.
SMILES,Solubility in 1.0 ml PBS buffer [1] [µg],solubility comparison [1],Solubility in 1.0 ml water ([1]; water) [µg],colocalization of APOB and SORTILIN [2],hepatic lipid accumulation (neutral lipid level) (Hepatic neutral lipid),solubility relative to that of DL-9 in 1 x PBS buffer ([1]; 1 x PBS buffer) [fold],solubility relative to that of DL-9 in water ([1]; water)
"CC(C)(C)c1cc(Nc2nc(S)nc(S)n2)cc(C(C)(C)C)c1OCCO (racemic) [DL-27, 6-(3,5-di-tert-butyl-4-(2-hydroxyethoxy)-phenylamino)-1,3,5-triazine-2,4-dithiol]",257,better solubilities than that for DL-9,1.78,,,,
"CC(C)(C)c1cc(Nc2nc(S)nc(S)n2)cc(C(C)(C)C)c1O [DL-9, {4-[(3,5-di-tert-butyl-4-hydroxyphenyl)amino]-6-sulfanidyl-1,3,5-triazin-2-yl}sulfanide]",91,best solubility among the first three compounds,0.40,colocalization of APOB and SORTILIN,,,
"Oc1c(Cl)cc(Nc2nc(S)nc(S)n2)cc1Cl (racemic) [DL-28, 6-(3,5-dichloro-4-hydroxyphenylamino)-1,3,5-triazine-2,4-dithiol]",348,better solubilities than that for DL-9,1.25,,,,
COc1cc(Nc2nc(S)nc(S)n2)cc(OC)c1O (racemic) [DL-32],786,better solubilities than that for DL-9,2.01,,,,
"Cc1cc(Nc2nc(S)nc(S)n2)cc(C)c1O (racemic) [DL-29, 6-(3,5-dimethyl-4-hydroxyphenylamino)-1,3,5-triazine-2,4-dithiol]",686,better solubilities than that for DL-9,2.22,,,,
"O=C(Nc1ccc2c(c1)CCN(Cc1ncn[nH]1)C2)c1ccccc1-c1ccc(C(F)(F)F)cc1 [CP-346086, reference compound]",,,,,significant increase of neutral lipid level,,
"CC(C)(C)c1cc(C(C)(C)C)c(Nc2nc(S)nc(S)n2)cc1O (racemic) [DL-30, 6-(2,4-di-tert-butyl-5-hydroxyphenylamino)-1,3,5-triazine-2,4-dithiol]",459,better solubilities than that for DL-9,1.35,,,,
"Sc1nc(S)nc(Nc2cc(Cl)cc(Cl)c2)n1 (racemic) [DL-5, 6-[(3,5-dichlorophenyl)amino]-1,3,5-triazine-2,4-dithiol]",61,,0.27,,,,
"C#CCOCCOCCOCCOCCOc1c(C(C)(C)C)cc(Nc2nc(S)nc(S)n2)cc1C(C)(C)C [DL-33, 6-(3,5-di-tert-butyl-4-(2-(2-(2-(2-(2-propyn-1-yloxy)ethoxy)ethyoxy)etoxy)ethoxy)-phenylamino)-1,3,5-triazine-2,4-dithiol]",186,better solubilities than that for DL-9,1.18,,,,
"CC(C)(C)c1cc(Nc2nc(S)nc(S)n2)c(O)c(C(C)(C)C)c1 (racemic) [DL-31, 6-(3,5-di-tert-butyl-2-hydroxyphenylamino)-1,3,5-triazine-2,4-dithiol]",477,better solubilities than that for DL-9,1.63,,,~5,about 4 fold
